Reference: ChEMBL document CHEMBL5303304, “EUbOPEN Chemogenomics Library - IncuCyte” (2023)

Experiments:
Assay type in all cases: toxicity, cell-based
U2OS = test: Incucyte cell viability with U2OS; conditions: human, 10 µM, compound concentration 10 uM
Fibroblast = test: Incucyte cell viability with human fibroblast; conditions: 10 µM, compound concentration 10 uM
HEK-293T = test: Incucyte cell viability with HEK293T; conditions: human, 10 µM, compound concentration 10 uM
Also: unitless GR value; below 1 slowed growth and below 0 cell loss.

SMILES | Growth Rate (U2OS; 0 h, replicate number 1) | Growth Rate (U2OS; 0 h, replicate number 2) | Growth Rate (U2OS; 24 h, replicate number 1) | Growth Rate (Fibroblast; 0 h, replicate number 1) | Growth Rate (Fibroblast; 6 h, replicate number 1) | Growth Rate (Fibroblast; 12 h, replicate number 2) | Growth Rate (Fibroblast; 18 h, replicate number 1) | Growth Rate (Fibroblast; 24 h, replicate number 2) | Growth Rate (HEK-293T; 0 h, replicate number 1) | Growth Rate (Fibroblast; 6 h, replicate number 2) | Growth Rate (HEK-293T; 0 h, replicate number 2) | Growth Rate (HEK-293T; 6 h, replicate number 2) | Growth Rate (HEK-293T; 12 h, replicate number 1) | Growth Rate (HEK-293T; 12 h, replicate number 2) | Growth Rate (HEK-293T; 18 h, replicate number 1) | Growth Rate (HEK-293T; 18 h, replicate number 2) | Growth Rate (HEK-293T; 24 h, replicate number 1) | Growth Rate (HEK-293T; 24 h, replicate number 2) | Growth Rate (U2OS; 12 h, replicate number 2) | Growth Rate (U2OS; 24 h, replicate number 2) | also measured
CCOC(=O)c1c(/C(C#N)=C\N)c2ccc(Cl)c(Cl)c2n1C | -0.98 | 0.82 | 0.94 | 0.55 | -0.96 | 0.88 | 0.7 | 0.9 | 0.22 |  |  |  |  |  |  |  |  |  |  |  | Growth Rate (U2OS; 6 h, replicate number 1): 0.92; Growth Rate (U2OS; 12 h, replicate number 1): 0.97; Growth Rate (Fibroblast; 24 h, replicate number 1): 0.75
CN[C@@H](C)C(=O)N[C@H]1CCCC[C@H]2CC[C@@H](C(=O)N[C@@H](c3ccccc3)c3cn(CCCCc4ccc(CCCCn5cc([C@@H](NC(=O)[C@@H]6CC[C@@H]7CCCC[C@H](NC(=O)[C@H](C)NC)C(=O)N76)c6ccccc6)nn5)cc4)nn3)N2C1=O | -0.95 | -0.89 |  | 0.3 |  | 0.88 | 0.61 | 0.66 | 0.64 | 0.06 | 0.24 | 0.99 | 0.83 | 0.77 | 0.72 | 0.74 | 0.65 | 0.84 |  |  | Growth Rate (Fibroblast; 18 h, replicate number 2): 0.55
COc1cc(/C=C(\C#N)C(=O)Nc2nnc(C(F)(F)F)s2)ccc1OCc1ccc(C(F)(F)F)cc1C(F)(F)F | 0.49 |  | 0.97 | -0.12 |  | 0.17 | 0.9 | 0.86 | 0.87 |  |  | 0.92 | 0.72 | 0.82 | 0.91 |  | 1 | 0.98 | 0.81 | 0.87 | Growth Rate (U2OS; 6 h, replicate number 1): 0.84; Growth Rate (U2OS; 6 h, replicate number 2): 0.63; Growth Rate (U2OS; 18 h, replicate number 2): 0.85; Growth Rate (Fibroblast; 12 h, replicate number 1): -0.69; Growth Rate (Fibroblast; 18 h, replicate number 2): 0.84; Growth Rate (Fibroblast; 24 h, replicate number 1): 0.17; Growth Rate (HEK-293T; 6 h, replicate number 1): 0.32
Nc1ccc(-c2cnc(N)c(-c3ccc(Cl)cc3)c2)cn1 | -0.24 | -0.83 |  | 0.71 | -1 |  |  |  | -0.26 |  | -0.3 |  |  |  |  | 0.92 |  | 0.78 |  |  | Growth Rate (Fibroblast; 0 h, replicate number 2): -0.5
CCCOc1cnc(CN/C=C2\C(=O)NC(=O)c3ccc(I)cc32)cc1O |  | -1 | 0.07 | 0.29 | -0.88 | -0.06 |  | 0.16 | 0.51 | -0.38 |  | -0.9 | -0.75 | -0.74 | -0.63 | -0.6 | -0.58 | -0.47 | 0.75 | 0 | Growth Rate (U2OS; 12 h, replicate number 1): 0.89; Growth Rate (U2OS; 18 h, replicate number 1): 0.45; Growth Rate (U2OS; 18 h, replicate number 2): 0.38; Growth Rate (Fibroblast; 12 h, replicate number 1): -0.79; Growth Rate (Fibroblast; 18 h, replicate number 2): 0.1; Growth Rate (Fibroblast; 24 h, replicate number 1): 0.11; Growth Rate (HEK-293T; 6 h, replicate number 1): -0.81
Nc1nccc(-c2ccn3c(N)nccc23)n1 |  | -0.76 |  | 0.88 | 0.9 |  | 0.49 |  | -0.56 |  | -0.48 |  |  |  |  |  | 0.97 |  |  |  | Growth Rate (U2OS; 12 h, replicate number 1): 0.76; Growth Rate (U2OS; 18 h, replicate number 1): 0.84; Growth Rate (Fibroblast; 12 h, replicate number 1): -0.17
CCN1C(=CC(C)=O)Sc2ccc(OC)cc21 |  |  |  | 0.98 |  |  |  |  | 0.95 | 0.95 | 0.69 | 0.47 | 0.47 | 0.28 | 0.25 | 0.43 | 0.2 | 0.46 | 0.9 |  | Growth Rate (Fibroblast; 0 h, replicate number 2): 0.16; Growth Rate (HEK-293T; 6 h, replicate number 1): 0.07
O=C1NC(=Nc2c(Cl)cccc2Cl)S/C1=C\c1ccc2nccnc2c1 | 0.01 |  | 0.8 | 0.49 |  | 0.96 |  |  | 0.08 | 0.92 | 0.44 |  | 0.48 | 0.26 | 0.44 | 0.35 | 0.52 | 0.45 | 0.38 | 0.75 | Growth Rate (U2OS; 6 h, replicate number 1): 0.4; Growth Rate (U2OS; 6 h, replicate number 2): 0.31; Growth Rate (U2OS; 18 h, replicate number 1): 0.81; Growth Rate (U2OS; 18 h, replicate number 2): 0.64; Growth Rate (HEK-293T; 6 h, replicate number 1): 0.02
COC[C@@H](CC(C)C)NC1=N/C(=C\c2ccc3ncsc3c2)C(=O)N1C | 0.04 |  | 0.37 |  | -0.97 | 0.07 | 0.63 | 0.51 | 0.16 | 0.03 | 0.12 | 0.4 | -0.18 | 0.3 | 0.35 | 0.69 | 0.68 | 0.6 | 0.64 | 0.28 | Growth Rate (U2OS; 12 h, replicate number 1): 0.73; Growth Rate (U2OS; 18 h, replicate number 1): 0.43; Growth Rate (U2OS; 18 h, replicate number 2): 0.37; Growth Rate (Fibroblast; 18 h, replicate number 2): 0.3; Growth Rate (HEK-293T; 6 h, replicate number 1): 0.37
O=C(Nc1cc(-c2cn[nH]c2)ccc1N1CCOCC1)c1ccc(-c2ccc3ncccc3c2)o1 |  | -0.65 | 0.44 | -0.23 | -1 | 0.42 |  | 0.77 | 0.85 |  | 0.49 | -0.29 | -0.07 | -0.19 | 0.02 | 0.04 | -0.01 | 0.06 | 0.75 | 0.4 | Growth Rate (U2OS; 18 h, replicate number 1): 0.39; Growth Rate (Fibroblast; 18 h, replicate number 2): 0.64; Growth Rate (HEK-293T; 6 h, replicate number 1): -0.44
O=C1NC(NC23CC4CC(CC(C4)C2)C3)=N/C1=C\c1ccc2ncsc2c1 | 0.86 | -0.34 | 0.82 | 0.57 | -1 |  |  |  | -0.45 |  | -0.26 |  | 0.28 | 0.34 | 0.06 | 0.09 | 0.08 | 0.05 |  | 0.52 | Growth Rate (U2OS; 18 h, replicate number 2): 0.87; Growth Rate (Fibroblast; 0 h, replicate number 2): 0.76
CN(C)Cc1cccc(NC(=C2C(=O)Nc3cc(C(N)=O)ccc32)c2ccccc2)c1 |  | -0.78 |  | -0.09 |  | 0.87 | -0.83 |  | 0.9 | 0.24 | -0.24 |  |  |  |  |  |  |  |  |  | Growth Rate (Fibroblast; 12 h, replicate number 1): -0.97; Growth Rate (Fibroblast; 24 h, replicate number 1): 0.13
